Key:
SW-620 = assay: Antitumor activity against human SW620 cells assessed as cell growth inhibition at 10 uM incubated for 48 hrs by sulforhodamine B assay; settings: SW-620, 48 h, read-out: GI
SF-295 = assay: Antitumor activity against human SF295 cells assessed as cell growth inhibition at 10 uM incubated for 48 hrs by sulforhodamine B assay; assay type: functional; settings: read-out: GI
NCI-H23 = assay: Antitumor activity against human NCI-H23 cells assessed as cell growth inhibition at 10 uM incubated for 48 hrs by sulforhodamine B assay; assay type: functional; settings: read-out: GI
Malme-3M = assay: Antitumor activity against human MALME-3M cells assessed as cell growth inhibition at 10 uM incubated for 48 hrs by sulforhodamine B assay; assay type: functional; settings: read-out: GI
Albumin [1] = molecular target: T1, Albumin (Bos taurus, UniProt P02769); assay: Binding affinity to bovine serum albumin assessed as quenching constant at 318K by fluorescence emission spectrum analysis; assay type: ADME, cell-free; settings: cattle
Calf thymus DNA [2] = assay: Binding affinity to calf thymus DNA assessed as binding constant by fluorescence emission spectroscopic analysis; assay type: nucleic-acid assay; settings: Bos taurus
Albumin [3] = molecular target: Albumin (Homo sapiens, UniProt P02768); assay: Binding affinity to human serum albumin assessed as quenching constant by fluorescence emission spectroscopy; assay type: ADME, cell-free
Calf thymus DNA [4] = assay: Binding affinity to calf thymus DNA assessed as binding constant by UV-Vis absorption spectrophotometric method based Benesi-Hildebrand equation analysis; assay type: nucleic-acid assay; settings: Bos taurus
HOP-92 = assay: Antitumor activity against human HOP92 cells assessed as cell growth inhibition at 10 uM incubated for 48 hrs by sulforhodamine B assay; assay type: functional; settings: read-out: GI
UO-31 = assay: Antitumor activity against human UO-31 cells assessed as cell growth inhibition at 10 uM incubated for 48 hrs by sulforhodamine B assay; assay type: functional; settings: read-out: GI
SNB-19 = assay: Antitumor activity against human SNB-19 cells assessed as cell growth inhibition at 10 uM incubated for 48 hrs by sulforhodamine B assay; assay type: functional; settings: read-out: GI
RXF 393 = assay: Antitumor activity against human RXF 393 cells assessed as cell growth inhibition at 10 uM incubated for 48 hrs by sulforhodamine B assay; assay type: functional; settings: read-out: GI
SNB-75 = assay: Antitumor activity against human SNB-75 cells assessed as cell growth inhibition at 10 uM incubated for 48 hrs by sulforhodamine B assay; assay type: functional; settings: read-out: GI
SK-MEL-28 = assay: Antitumor activity against human SK-MEL-28 cells assessed as cell growth inhibition at 10 uM incubated for 48 hrs by sulforhodamine B assay; assay type: functional; settings: read-out: GI
IGROV-1 = assay: Antitumor activity against human IGROV1 cells assessed as cell growth inhibition at 10 uM incubated for 48 hrs by sulforhodamine B assay; assay type: functional; settings: read-out: GI
Albumin [5] = molecular target: T1, Albumin; assay: Binding affinity to bovine serum albumin assessed as binding constant by UV-vis absorption spectral titration analysis based Benesi-Hildebrand equation analysis; assay type: ADME, cell-free; settings: cattle
HCT-15 = assay: Antitumor activity against human HCT15 cells assessed as cell growth inhibition at 10 uM incubated for 48 hrs by sulforhodamine B assay; assay type: functional; settings: read-out: GI

T1 sequence (P02769 whole entry): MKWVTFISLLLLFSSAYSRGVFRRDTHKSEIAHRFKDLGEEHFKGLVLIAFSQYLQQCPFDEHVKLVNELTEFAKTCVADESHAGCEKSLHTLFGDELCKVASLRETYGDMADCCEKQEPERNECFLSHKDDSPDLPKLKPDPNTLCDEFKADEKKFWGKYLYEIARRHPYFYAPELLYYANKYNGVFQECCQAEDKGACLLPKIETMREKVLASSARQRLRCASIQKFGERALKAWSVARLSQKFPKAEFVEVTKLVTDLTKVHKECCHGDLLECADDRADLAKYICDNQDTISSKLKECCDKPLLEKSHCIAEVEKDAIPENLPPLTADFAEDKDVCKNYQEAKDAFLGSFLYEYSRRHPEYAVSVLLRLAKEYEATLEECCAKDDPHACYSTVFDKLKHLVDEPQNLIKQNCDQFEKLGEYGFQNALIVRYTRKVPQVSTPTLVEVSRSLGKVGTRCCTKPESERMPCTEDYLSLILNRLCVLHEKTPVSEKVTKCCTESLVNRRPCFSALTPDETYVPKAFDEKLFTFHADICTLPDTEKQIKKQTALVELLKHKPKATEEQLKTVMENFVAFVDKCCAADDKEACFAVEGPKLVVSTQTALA
Chain of Albumin (Homo sapiens, UniProt P02768) (P02768 whole entry): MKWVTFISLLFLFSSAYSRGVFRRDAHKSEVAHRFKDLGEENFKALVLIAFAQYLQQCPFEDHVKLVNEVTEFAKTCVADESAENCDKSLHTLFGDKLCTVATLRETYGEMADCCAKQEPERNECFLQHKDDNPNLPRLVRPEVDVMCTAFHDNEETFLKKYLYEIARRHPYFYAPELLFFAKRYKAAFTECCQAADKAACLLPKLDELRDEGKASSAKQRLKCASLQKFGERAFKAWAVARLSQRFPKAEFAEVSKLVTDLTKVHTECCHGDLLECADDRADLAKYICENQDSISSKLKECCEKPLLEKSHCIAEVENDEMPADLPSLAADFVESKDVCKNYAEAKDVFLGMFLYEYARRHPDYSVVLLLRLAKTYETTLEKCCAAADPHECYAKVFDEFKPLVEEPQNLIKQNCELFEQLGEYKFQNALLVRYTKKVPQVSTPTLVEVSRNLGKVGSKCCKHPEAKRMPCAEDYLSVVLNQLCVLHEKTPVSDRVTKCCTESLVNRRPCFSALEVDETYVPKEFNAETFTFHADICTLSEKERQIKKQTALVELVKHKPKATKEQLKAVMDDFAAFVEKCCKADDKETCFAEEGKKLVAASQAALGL

In the case of O=C1NC(=O)/C(=C/c2ccc(-c3nc4c5ccccc5c5ccccc5c4[nH]3)cc2)S1, the inhibition of growth at 10 µM (SW-620) is reported as 22.8%, the inhibition of growth at 10 µM (SF-295) is reported as 16.3% and the inhibition of growth at 10 µM (NCI-H23) is reported as 29%. For the same compound, the inhibition of growth at 10 µM (Malme-3M) was 14.8%, the Kq (Albumin [1]) was 3.51 10^13/M/sec and the Kb (Calf thymus DNA [2]) was 1.95 10^5/M. The Kq (Albumin [3]) was 3.01 10^14/M/s, the Kb (Calf thymus DNA [4]) was 2.95 10^4/M and the inhibition of growth at 10 µM (HOP-92) was 21.4%. The inhibition of growth at 10 µM (UO-31) was 25.5%, the inhibition of growth at 10 µM (SNB-19) was 18.1% and the inhibition of growth at 10 µM (RXF 393) was 19.1%. The inhibition of growth at 10 µM (SNB-75) was under 10%, the inhibition of growth at 10 µM (SK-MEL-28) was 19.1% and the inhibition of growth at 10 µM (IGROV-1) was under 10%. The Kb (Albumin [5]) was 6.57 10^4/M and the inhibition of growth at 10 µM (HCT-15) was 50%.

Source: ChEMBL document CHEMBL4665624, “Synthesis of 5-(4-(1H-phenanthro[9,10-d]imidazol-2-yl)benzylidene)thiazolidine-2,4-dione as promising DNA and serum albumin-binding agents and evaluation of antitumor activity” (Eur J Med Chem, 2019)
